A short description of data set [1]: Approximate solubilities of Form A in various solvents at ambient temperature. The class given is physicochemical. The following applies: for solubility: thermodynamic from solid, approximate. The method, then:
The approximate solubilities were estimated from experiments based on the total solvent used to give a solution. The actual solubilities may be greater than those calculated because of the use of too-large solvent aliquots or a slow rate of dissolution. […] If the solid dissolved before the whole aliquot of solvent was added the solubility is listed as “greater than”.

Data set [2] can be described thus: Moisture sorption/desorption. The format is physicochemical. The following applies: for XRPD Results after the moisture sorption/desorption experiment: sorption 5 to 95% RH, desorption 95 to 5% RH. The method, then: The moisture sorption/desorption data was collected on a VT SGA-100 moisture balance system. For sorption isotherms, a sorption range of 5 to 95% relative humidity (RH) and a desorption range of 95 to 5% RH in 10% RH increments were used for analysis. The sample was not dried prior to analysis. Equilibrium criteria used for analysis was less than 0.0100% weight change in 5 minutes with a maximum equilibration time of 3 hours if the weight criterion was not met. Data was not corrected for the initial moisture content of the samples.

A short description of data set [3]: Stress studies (humidity / temperature, XRPD). The class given is physicochemical. As to the method:
Samples of N-(2-acetyl-4,6-dimethylphenyl)-3-{[(3,4-dimethyl-5-isoxazolyl)amino]-sulfonyl}-2-thiophenecaboxamide were stressed at 22, 58, 75, and 93% RH under ambient temperature for 3 days. One sample was also placed in a 40 ° C. oven for 11 days. Samples of amorphous material were also placed in a 40 ° C. oven for 36 days or in a 70 ° C. oven for 4 days. The solids were then analyzed by XRPD.

Data set [4] in a line: Grinding experiments (mortar and pestle, XRPD). The format is physicochemical. The method, then: N-(2-acetyl-4,6-dimethylphenyl)-3-{[(3 ,4-dimethyl-5-isoxazolyl)amino]-sulfonyl}-2-thiophenecaboxamide material was ground by hand with a mortar and pestle for 30 sec, 1, 2, and 5 minutes. The samples were then analyzed by XRPD.
Data set [5] can be described thus: Solubility of Forms A, C and E in ethanol (gravimetric). The following applies: for stability of the forms (order, based on the solubility data): ethanol solubility data; for AVERAGE SOLUBILITY / solubility at 30 min / solubility at 60 min / XRPD of remaining solid after the solubility experiment (form conversion) / relative solubility of the forms: ethanol; for solubility at 30 min / solubility at 60 min: organic solvent or mixture, thermodynamic from solid, AVERAGE SOLUBILITY; for XRPD of remaining solid after the solubility experiment (form conversion) / relative solubility of the forms: various temperatures.
Method: (§1) Saturated solutions of this compound in ethanol were prepared and each solution was heated to either 25, 27, 35, 40 or 50° C.' and stirred for 30 minutes. The samples were filtered into a receiving flask and were heated at the same temperatures and stirred for another 30 minutes. Samples were removed from these flasks and were filtered into a tared vial. The remaining solution was heated and stirred for another 30 minutes. Samples were again removed from these flasks and were filtered into another tared vial. The solvents in the tared vials were removed using a rotary evaporator and the weights of the solids in the tared vials were recorded and were used to calculate solubility.
(§2) The solubilitites reported were determined gravimetrically, therefore, fluctuations in the data are possible.

The nature of data set [6]: Interconversion experiments (slurries of two forms, XRPD). The format is physicochemical. As to the method:
Interconversion experiments were carried out by making slurries containing two forms of N-(2-acetyl-4,6-dimethylphenyl)-3 -{[(3,4-dimethyl-5-isoxazolyl)amino]-sulfonyl}-2-thiophenecaboxamide in saturated toluene, methanol/water, or alcohol solutions. The slurries were agitated for various time periods at either ambient temperature or at 45° C. The insoluble solids were recovered by filtration and analyzed using XRPD.

The next data set can be described thus: physchem. The settings on record: organic solvent or mixture, thermodynamic from solid, AVERAGE SOLUBILITY

Converted amounts (≈) assume the structure as drawn. “Also recorded” adds a separate entry of the source.

What is called solubility is the concentration that dissolves in the medium under given conditions.

Method for physchem: as §1, §2

Regarding `CC(=O)c1cc(C)cc(C)c1NC(=O)c1sccc1S(=O)(=O)Nc1onc(C)c1C` [Form A, N-(2-acetyl-4,6-dimethylphenyl)-3-{[(3,4dimethyl-5-isoxazolyl)-amino]sulfonyl}-2-thiophenecarboxamide], the solubility in data set [1] (N,N-dimethylformamide, organic solvent or mixture) is 250 mg/mL (≈ 559 mM); in data set [1] (acetone, organic solvent or mixture) it was 87 mg/mL (≈ 194 mM); in data set [1] (acetonitrile, organic solvent or mixture) it was 72 mg/mL (≈ 161 mM); in data set [1] (dichloromethane, organic solvent or mixture) it was 135 mg/mL (≈ 302 mM); in data set [1] (diethyl ether, organic solvent or mixture), under 9 mg/mL; in data set [1] (dimethyl sulfoxide, organic solvent or mixture), 144 mg/mL (≈ 322 mM). The solubility in data set [1] (ethanol, organic solvent or mixture) is 9 mg/mL (≈ 20.1 mM); in data set [1] (ethyl acetate, organic solvent or mixture) it was 21 mg/mL (≈ 46.9 mM); in data set [1] (hexanes, organic solvent or mixture) it was under 9 mg/mL; in data set [1] (isopropanol, organic solvent or mixture), under 10 mg/mL; in data set [1] (methanol, organic solvent or mixture), 21 mg/mL (≈ 46.9 mM); in data set [1] (propanol, organic solvent or mixture), under 9 mg/mL. The solubility in data set [1] (toluene, organic solvent or mixture) was 19 mg/mL (≈ 42.5 mM); in data set [1] (water), under 8 mg/mL. For the same compound, the “solubility (in words)” value in data set [1] (diethyl other, hexanes, propanol and water) is recorded as “sparingly soluble”. The “hygroscopicity (based on moisture sorption/desorption data)” value in data set [2] was “non-hygroscopic”. For the same compound, the “Moisture Balance Results: weight loss at 5% RH” value in data set [2] is reported as <0.1% weight loss at 5% RH,. For the same compound, the “Moisture Balance Results: total weight gain at 95% RH” value (“Moisture Balance Results … at 95% RH” below) in data set [2] is reported as <0.1% total weight gain at 95% RH. Further, the “XRPD Results after the moisture sorption/desorption experiment” value in data set [2] is on record as “remained Form A”. Besides, the “form after stress, all conditions of Table 10” value in data set [3] (various conditions (22-93% RH 3 d; 40° C. 11 d)) is “remained Form A”. In data set [4] (grind time 1 min), the “XRPD Pattern after grinding” value is “A, SS”. In data set [4] (ground for up to 5 minutes, mortar and pestle), the crystallinity upon grinding result is listed as “loses some crystallinity”. Further, in data set [5], the “stability of the forms (order, based on the solubility data)” value is reported as “Form A >Form C >Form E”. Moreover, the “AVERAGE SOLUBILITY” value amounted to 9.5 mg/mL in data set [5] (25 °C, 30 min); 10.6 mg/mL in data set [5] (25 °C, 60 min); 17.3 mg/mL in data set [5] (40 °C, 30 min); 18.1 mg/mL in data set [5] (40 °C, 60 min). For the same compound, the solubility at 30 min in data set [5] (50 °C, 30 min) was determined as 40.8 mg/mL (≈ 91.2 mM). Moreover, the solubility at 60 min in data set [5] (50 °C, 60 min) worked out at 36.7 mg/mL (≈ 82 mM). The “XRPD of remaining solid after the solubility experiment (form conversion)” value in data set [5] is listed as “conversion to another form did not occur”. The “relative solubility of the forms” value in data set [5] is “less soluble form; also recorded: least soluble”.

`CC(=O)c1cc(C)cc(C)c1NC(=O)c1sccc1S(=O)(=O)Nc1onc(C)c1C` [A vs. E]: the “XRPD Results after slurry” value is on record as “A + E(min)” in data set [6] (ethanol, 20 days); “A + pk 4°” in data set [6] (ethanol, 27 days); “A, SS” in data set [6] (toluene RT, 20 days); “A(PO)” in data set [6] (toluene, 45° C., 5 days).

`CC(=O)c1cc(C)cc(C)c1NC(=O)c1sccc1S(=O)(=O)Nc1onc(C)c1C` [C vs. E]: the “XRPD Results after slurry” value in data set [6] (toluene, 45° C., 5 days) was “A + C”.

For `CC(=O)c1cc(C)cc(C)c1NC(=O)c1sccc1S(=O)(=O)Nc1onc(C)c1C` [Form E, N-(2-acetyl-4,6-dimethylphenyl)-3-{[(3,4dimethyl-5-isoxazolyl)-amino]sulfonyl}-2-thiophenecarboxamide], in data set [2], the “hygroscopicity (based on moisture sorption/desorption data)” value was “non-hygroscopic”, the “Moisture Balance Results: weight loss at 5% RH” value is <0.1% weight loss at 5% RH,, the “Moisture Balance Results … at 95% RH” value is given as 0.15% total weight gain at 95% RH and the “XRPD Results after the moisture sorption/desorption experiment” value is listed as “remained Form E”. Besides, the “weight loss or gain during the moisture sorption/desorption experiment” value in data set [2] (whole experiment) is given as under 0.2%. In addition, in “physchem” (27 °C), the solubility at 30 min came to 12.7 mg/mL (≈ 28.4 mM) and the solubility at 60 min came out at 11 mg/mL (≈ 24.6 mM). Moreover, in “physchem” (35 °C), the solubility at 30 min is 17.7 mg/mL (≈ 39.5 mM) and the solubility at 60 min is 18.3 mg/mL (≈ 40.9 mM). In addition, in “physchem” (50 °C), the solubility at 30 min turned out to be 40.8 mg/mL (≈ 91.2 mM) and the solubility at 60 min turned out to be 39.7 mg/mL (≈ 88.7 mM).

Take `CC(=O)c1cc(C)cc(C)c1NC(=O)c1sccc1S(=O)(=O)Nc1onc(C)c1C` [A(PO)]: the “XRPD Pattern after grinding” value in data set [4] (grind time 2 min) was “C + E”.

With `CC(=O)c1cc(C)cc(C)c1NC(=O)c1sccc1S(=O)(=O)Nc1onc(C)c1C` [Form C, N-(2-acetyl-4,6-dimethylphenyl)-3-{[(3,4dimethyl-5-isoxazolyl)-amino]sulfonyl}-2-thiophenecarboxamide], in data set [2], the “hygroscopicity (based on moisture sorption/desorption data)” value was “non-hygroscopic”, the “Moisture Balance Results: weight loss at 5% RH” value is recorded as <0.1% weight loss at 5% RH,, the “Moisture Balance Results … at 95% RH” value is listed as <0.1% total weight gain at 95% RH and the “XRPD Results after the moisture sorption/desorption experiment” value is given as “remained Form C”. For the same compound, in data set [4] (grind time 2 min), the “XRPD Pattern after grinding” value is listed as “remained Form C”. In addition, the “XRPD Results after slurry” value in data set [6] (ethanol, 16 days) is recorded as “remained the same form”. In addition, in data set [5], the “stability of the forms (order, based on the solubility data)” value is reported as “Form A >Form C >Form E”; the “XRPD of remaining solid after the solubility experiment (form conversion)” value is on record as “did not change form; also recorded: did not convert”; the “relative solubility of the forms” value was “higher solubility than Form A”. Also, the solubility at 30 min in data set [5] (25 °C, 30 min) was 16.1 mg/mL (≈ 36 mM). The solubility at 60 min in data set [5] (25 °C, 60 min) came out at 13.2 mg/mL (≈ 29.5 mM). Besides, in data set [5] (40 °C, 30 min), the solubility at 30 min amounted to 28.3 mg/mL (≈ 63.2 mM). The solubility at 60 min in data set [5] (40 °C, 60 min) turned out to be 27.4 mg/mL (≈ 61.2 mM). The “AVERAGE SOLUBILITY” value in data set [5] (50 °C, 30 min) is 35.6 mg/mL. The “AVERAGE SOLUBILITY” value in data set [5] (50 °C, 60 min) worked out at 45.1 mg/mL.

For the compound `CC(=O)c1cc(C)cc(C)c1NC(=O)c1sccc1S(=O)(=O)Nc1onc(C)c1C` [A vs. C], the “XRPD Results after slurry” value in data set [6] (1:1 methanol:water, 12 days) is “A + C, SS”; in data set [6] (toluene RT, 12 days), “A + C”; in data set [6] (toluene, 45° C., 5 days) it was “A + C”.

For the compound `CC(=O)c1cc(C)cc(C)c1NC(=O)c1sccc1S(=O)(=O)Nc1onc(C)c1C` [amorphous, N-(2-acetyl-4,6-dimethylphenyl)-3-{[(3,4dimethyl-5-isoxazolyl)-amino]sulfonyl}-2-thiophenecarboxamide], in data set [2], the “Moisture Balance Results: weight loss at 5% RH” value was <0.1% weight loss at 5% RH,. Besides, the “XRPD Results after the moisture sorption/desorption experiment” value in data set [2] was “remained amorphous; also recorded: does not recrystallize”. The “XRPD Pattern after stress” value in data set [3] (40° C., 36 d) was “amorphous”; in data set [3] (70° C., 4 d) it was “a mixture of Forms E and C”; in data set [3] (ambient, 92 d (approx. 3 months)), “Forms C and E”.
